The assay relates to P388 leukemia ip, CD2F1 mice, survival T/C. Briefly: NCI In Vivo Anticancer Drug Screen. Data for tumor model P388 Leukemia (intraperitoneal) in CD2F1 (CDF1) mice. To be noted: endpoint: median survival time, higher = longer survival. The method in brief: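 Mice carrying the transplanted tumor received test compound or vehicle. Survival was recorded in each group, and the value is the treated-group measurement divided by that of the vehicle-treated control group.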

[1] abbreviates: dose: 50.0 mg/kg/injection, schedule: Q01DX005 (ip), vehicle: Klucel (hydroxypropylcellulose) (HPC).
Setting [2] is: dose: 100.0 mg/kg/injection, schedule: Q04DX003 (ip), vehicle: saline with Tween-80.
Where [3] appears, read: dose: 200.0 mg/kg/injection, schedule: Q04DX003 (ip), vehicle: saline with Tween-80.
Setting [4] is: dose: 400.0 mg/kg/injection, schedule: Q04DX003 (ip), vehicle: saline with Tween-80.
The mark [5] stands for this setting: dose: 50.0 mg/kg/injection, schedule: Q01DX005 (ip), vehicle: saline.
The mark [6] stands for this setting: dose: 60.0 mg/kg/injection, schedule: Q01DX005 (ip), vehicle: Klucel (hydroxypropylcellulose) (HPC).
The mark [7] stands for this setting: dose: 120.0 mg/kg/injection, schedule: Q01DX005 (ip), vehicle: Klucel (hydroxypropylcellulose) (HPC).
[8] abbreviates: dose: 240.0 mg/kg/injection, schedule: Q01DX005 (ip), vehicle: Klucel (hydroxypropylcellulose) (HPC).
Where [9] appears, read: dose: 50.0 mg/kg/injection, schedule: Q01DX009 (ip), vehicle: Klucel (hydroxypropylcellulose) (HPC).
Where [10] appears, read: dose: 100.0 mg/kg/injection, schedule: Q01DX009 (ip), vehicle: Klucel (hydroxypropylcellulose) (HPC).
Where [11] appears, read: dose: 200.0 mg/kg/injection, schedule: Q01DX009 (ip), vehicle: Klucel (hydroxypropylcellulose) (HPC).
Where [12] appears, read: dose: 60.0 mg/kg/injection, schedule: Q01DX005 (ip), vehicle: saline with Tween-80.
Setting [13] is: dose: 120.0 mg/kg/injection, schedule: Q01DX005 (ip), vehicle: saline with Tween-80.
[14] abbreviates: dose: 60.0 mg/kg/injection, schedule: Q01DX005 (ip), vehicle: saline.
Where [15] appears, read: dose: 120.0 mg/kg/injection, schedule: Q01DX005 (ip), vehicle: saline.
Where [16] appears, read: dose: 240.0 mg/kg/injection, schedule: Q01DX005 (ip), vehicle: saline with Tween-80.

Where “and” joins values, the source holds several entries; their conditions need not be identical. Equal entries are not always repeated. Inconclusive results and toxic doses are left out. Peptide text beside a SMILES is read from it.

The values below come from PubChem BioAssay AID330 (DTP/NCI, 2004).

In the case of `Nc1nc(N)c(CCc2ccccc2)c(N)n1`, the T/C was 97 % of control (dose: 12.5 mg/kg/injection, schedule: Q01DX005 (ip), vehicle: Klucel (hydroxypropylcellulose) (HPC)); 103 % of control (dose: 25.0 mg/kg/injection, schedule: Q01DX005 (ip), vehicle: Klucel (hydroxypropylcellulose) (HPC)); 92 % of control and 97 % of control under setting [1].

Consider `NC(=S)Nc1ccc(C(=O)O)cc1`, for which the T/C is, setting by setting: under setting [2], 100 % of control; under setting [3], 95 % of control; under setting [4], 109 % of control.

On to `CCC(c1ccc(O)cc1)c1cc2c(cc1OC)OCO2` (centres undefined), for which the T/C by setting is: (dose: 50.0 mg/kg/injection, schedule: Q01DX005 (ip), vehicle: distilled water + Tween-80) 101 % of control; (dose: 100.0 mg/kg/injection, schedule: Q01DX005 (ip), vehicle: distilled water + Tween-80) 96 % of control; (dose: 200.0 mg/kg/injection, schedule: Q01DX005 (ip), vehicle: distilled water + Tween-80) 96 % of control.

On to `CCOc1ccn(C2C=CC(=O)O2)c(=O)n1` (centres undefined), for which the T/C was 102 % of control and 105 % of control (dose: 6.25 mg/kg/injection, schedule: Q01DX005 (ip), vehicle: saline); 110 % of control and 112 % of control (dose: 12.5 mg/kg/injection, schedule: Q01DX005 (ip), vehicle: saline); 111 % of control and 118 % of control (dose: 25.0 mg/kg/injection, schedule: Q01DX005 (ip), vehicle: saline); 118 % of control and 120 % of control under setting [5].

On to `COC1(OC)OC(c2ccccc2)=C(c2ccccc2)C(C#N)(C#N)C1(OC)OC`, for which the T/C under setting [6] was 91 % of control, the T/C under setting [7] is 88 % of control and the T/C under setting [8] is 94 % of control.

In the case of `O/N=C/C(Cl)=N\O`, the T/C by setting is: (dose: 100.0 mg/kg/injection, schedule: Q04DX002 (ip), vehicle: saline with Tween-80) 91 % of control; (dose: 200.0 mg/kg/injection, schedule: Q04DX002 (ip), vehicle: saline with Tween-80) 90 % of control.

In the case of `COc1cc([N+](=O)[O-])ccc1N=Cc1ccc(C=Nc2ccc([N+](=O)[O-])cc2OC)cc1`, the T/C runs as follows: under setting [9], 95 % of control and 96 % of control; under setting [10], 86 % of control and 96 % of control; under setting [11], 96 % of control.

Consider `O=[N+]([O-])c1ccc(CS(=O)(=O)c2ccccc2)o1`, for which the T/C was 103 % of control (dose: 50.0 mg/kg/injection, schedule: Q01DX009 (ip), vehicle: suspension in saline); 100 % of control (dose: 100.0 mg/kg/injection, schedule: Q01DX009 (ip), vehicle: suspension in saline); 105 % of control (dose: 200.0 mg/kg/injection, schedule: Q01DX009 (ip), vehicle: suspension in saline).

Take `CC(=O)C(N)=O`: the T/C by setting is: under setting [5], 98 % of control; (dose: 100.0 mg/kg/injection, schedule: Q01DX005 (ip), vehicle: saline) 100 % of control; (dose: 200.0 mg/kg/injection, schedule: Q01DX005 (ip), vehicle: saline) 101 % of control.

Take `Cn1/c(=N\N)sc2ccc(S(=O)(=O)O)cc21`: the T/C by setting is: under setting [9], 97 % of control; under setting [10], 103 % of control; under setting [11], 105 % of control.

On to `O=C(OC1CCCc2ccccc21)c1ccc(N=Nc2ccccc2)cc1` (centres undefined), for which the T/C by setting is: under setting [12], 95 % of control; under setting [13], 88 % of control.

On to `CCOC(CCl)OCC`, for which the T/C (dose: 6.25 mg/kg/injection, schedule: Q01DX009 (ip), vehicle: saline) was 103 % of control and 105 % of control.

Regarding `NC(N)=NCCCC(N)C(=O)NC(CCCN=C(N)N)C(=O)O` (stereo not drawn) (H-Arg-Arg-OH; configuration not given here), the T/C under setting [1] is 103 % of control; the T/C (dose: 100.0 mg/kg/injection, schedule: Q01DX005 (ip), vehicle: Klucel (hydroxypropylcellulose) (HPC)) is 100 % of control; the T/C (dose: 200.0 mg/kg/injection, schedule: Q01DX005 (ip), vehicle: Klucel (hydroxypropylcellulose) (HPC)) was 100 % of control.

On to `CC(=O)OCC1OC(n2cc(C)c(=O)[nH]c2=O)CC1OC(C)=O` (centres undefined), for which the T/C reads like this: (dose: 100.0 mg/kg/injection, schedule: Q01DX009 (ip), vehicle: saline with Tween-80) 110 % of control; under setting [2], 100 % of control; (dose: 200.0 mg/kg/injection, schedule: Q01DX009 (ip), vehicle: saline with Tween-80) 110 % of control; under setting [3], 100 % of control; (dose: 400.0 mg/kg/injection, schedule: Q01DX009 (ip), vehicle: saline with Tween-80) 110 % of control; under setting [4], 104 % of control.

Turning to `Cc1c(-c2nc(N)nc(C3CC3)c2C)nc(N)nc1C1CC1`, the T/C is 102 % of control under setting [14] and 100 % of control under setting [15].

On to `COC(=O)C/C(=C/C=C1/C(=O)ON=C1C)c1c(C)[nH]oc1=O`, for which the T/C (dose: 100.0 mg/kg/injection, schedule: Q04DX003 (ip), vehicle: saline) is 100 % of control; the T/C (dose: 200.0 mg/kg/injection, schedule: Q04DX003 (ip), vehicle: saline) is 100 % of control; the T/C (dose: 400.0 mg/kg/injection, schedule: Q04DX003 (ip), vehicle: saline) is 100 % of control.

With `C1CCN(CCC[Si]23OCCN(CCO2)CCO3)C1`, the T/C is 108 % of control (dose: 50.0 mg/kg/injection, schedule: Q01DX005 (ip), vehicle: saline with Tween-80); 108 % of control (dose: 100.0 mg/kg/injection, schedule: Q01DX005 (ip), vehicle: saline with Tween-80); 109 % of control (dose: 200.0 mg/kg/injection, schedule: Q01DX005 (ip), vehicle: saline with Tween-80).

Turning to `COC(=O)C1(C(=O)Nc2ccccc2)N=N1`, the T/C under setting [6] was 108 % of control, the T/C under setting [7] is 100 % of control and the T/C under setting [8] is 103 % of control.

Turning to `O=C(Nc1ccc([N+](=O)[O-])cc1)c1c2ccccc2nc2ccccc12`, the T/C (dose: 50.0 mg/kg/injection, schedule: Q01DX005 (ip), vehicle: suspension in saline) was 92 % of control; the T/C (dose: 100.0 mg/kg/injection, schedule: Q01DX005 (ip), vehicle: suspension in saline) was 100 % of control; the T/C (dose: 200.0 mg/kg/injection, schedule: Q01DX005 (ip), vehicle: suspension in saline) was 104 % of control.

Turning to `O=[N+]([O-])c1ccc(NN=C2CCCCC2)c([N+](=O)[O-])c1`, the T/C (dose: 25.0 mg/kg/injection, schedule: Q04DX003 (ip), vehicle: Klucel (hydroxypropylcellulose) (HPC)) was 103 % of control; the T/C (dose: 50.0 mg/kg/injection, schedule: Q04DX003 (ip), vehicle: Klucel (hydroxypropylcellulose) (HPC)) is 104 % of control; the T/C (dose: 100.0 mg/kg/injection, schedule: Q04DX003 (ip), vehicle: Klucel (hydroxypropylcellulose) (HPC)) is 105 % of control; the T/C (dose: 200.0 mg/kg/injection, schedule: Q04DX003 (ip), vehicle: Klucel (hydroxypropylcellulose) (HPC)) was 112 % of control.

On to `Cn1ccnc1Sc1ccccn1`, for which the T/C is, setting by setting: under setting [14], 104 % of control; under setting [15], 107 % of control; (dose: 240.0 mg/kg/injection, schedule: Q01DX005 (ip), vehicle: saline) 89 % of control.

Turning to `COC(=O)c1nc(N)nc(C(=O)OC)c1C(=O)c1ccccn1`, the T/C runs as follows: under setting [6], 101 % of control; under setting [7], 99 % of control.

On to `NC(N)=NC(=O)COc1ccc(Cl)cc1Cl`, for which the T/C under setting [12] is 97 % of control, the T/C under setting [13] was 103 % of control and the T/C under setting [16] was 114 % of control.

For the compound `CC(=O)Nc1ccc(S(=O)(=O)Nc2c(-c3ccccc3)[nH]c(C)c2C(C)=O)cc1`, the T/C was 102 % of control under setting [12], 102 % of control under setting [13] and 98 % of control under setting [16].

On to `CC1=CC2ON=C(c3c(C)cc(C)cc3C)N2N(C(=O)c2ccccc2)C=C1` (centres undefined), for which the T/C is, setting by setting: (dose: 50.0 mg/kg/injection, schedule: Q01DX009 (ip), vehicle: saline) 102 % of control; (dose: 100.0 mg/kg/injection, schedule: Q01DX009 (ip), vehicle: saline) 93 % of control; (dose: 200.0 mg/kg/injection, schedule: Q01DX009 (ip), vehicle: saline) 93 % of control.
